Assay results reported in the NIST ThermoML archive (doi:10.1016/j.tca.2017.09.002).

Test: excess molar enthalpy (molar enthalpy of mixing); xn = mol fraction of the nth substance listed
Settings: 1273 K, 105 kPa, Liquid, Calvet calorimetry

[Ni] [nickel] + [Bi]
Settings | excess molar enthalpy [kcal/mol]
x1 = 0.0552 | -0.0846
x1 = 0.1056 | -0.165
x1 = 0.1516 | -0.227
x1 = 0.1935 | -0.272
x1 = 0.2321 | -0.301
x1 = 0.2677 | -0.321
x1 = 0.3011 | -0.329
x1 = 0.3319 | -0.325
